The results in this text go back to ChEMBL document CHEMBL1149000, “Effects of p-Methoxycinnamaldehyde from Star Anise and Related Cinnamic Acid Derivatives on Velvetleaf Germination” (J Nat Prod, 1986).

In series [1] the test system is Abutilon theophrasti. The series is described as follows: Herbicidal activity against velvetleaf assessed as seed germination at 1 mM after 4 days relative to control. Format: functional.
For series [2], the system named is Abutilon theophrasti. The series is described as follows: Herbicidal activity against velvetleaf assessed as seed germination at 5 mM after 4 days relative to control. Type of series: functional.
Series [3] has as its system Abutilon theophrasti. Put plainly: Herbicidal activity against velvetleaf assessed as seed germination at 2.5 mM after 4 days relative to control. Format: functional.
Series [4] can be described thus: Toxicity in rat. Type of series: organism-based. Particulars: in vivo.
A short description of series [5]: Inhibition of cAMP phosphodiesterase at 0.05 mM.

As to `O=C/C=C/c1ccccc1` [CINNAMALDEHYDE], the Activity in series [1] was determined as 57%; in series [2], 0%; in series [3], 0%.
Consider `O=C(O)/C=C/c1ccccc1` [CINNAMIC ACID], for which the Activity came to 100% in series [1], 5% in series [2] and 77% in series [3].
Turning to `COc1ccc(/C=C/C=O)cc1` [PARA-METHOXY CINNAMALDEHYDE], the Activity in series [1] amounted to 83%; in series [2] it was 1%; in series [3], 8%. Besides, in series [4], the median lethal dose (LD50) was > 5000 mg/kg. Besides, the inhibition in series [5] was 50%.
In the case of `OC/C=C/c1ccccc1` [CINNAMIC ALCOHOL], the values for the Activity in series [1], in series [2] and in series [3] were 73%, 0% and 0%, respectively.
For the compound `COc1ccc(/C=C/C(=O)O)cc1` [4-METHOXYCINNAMIC ACID], the Activity came out at 107% in series [1], 83% in series [2] and 83% in series [3].
As for `C/C=C/c1ccc(OC)cc1` [ANETHOLE], the values for the Activity in series [1], in series [2] and in series [3] were 98%, 95% and 100%, respectively.
Regarding `COc1ccccc1/C=C/C=O`, the Activity was determined as 77% in series [1], 0% in series [2] and 3% in series [3].

Broadly, the LD50 is the dose expected to kill half of the subjects tested. Read a low LD50 as a more toxic substance. Broadly, the inhibition is the relative decrease from the control value, in per cent. The low end stands for little suppression, the high end for strong suppression.
